Test results: ChEMBL document CHEMBL5537187, “Discovery of N-(1-(6-Oxo-1,6-dihydropyrimidine)-pyrazole) Acetamide Derivatives as Novel Noncovalent DprE1 Inhibitors against Mycobacterium tuberculosis” (J Med Chem, 2024)
Values after ≈ are worked out from the molar mass of the structure shown. Active and inactive are the calls of the source. The rule behind the calls is not given here.

Tests used:
[1] = system: Mycobacterium tuberculosis; test: microbe, parasite or virus in culture; details: H37Ra
Description: Antimycobacterial activity against autoluminescent Mycobacterium tuberculosis H37Ra assessed as inhibition of bacterial growth measured after 3 to 7 days by luminescence based analysis

in vitro = details: human, HepG2 cells
Description: Cytotoxicity against human HepG2 cells assessed as reduction in cell viability

[2] = system: Mycolicibacterium smegmatis; test: Antimycobacterial activity against Mycobacterium smegmatis […] assessed as inhibition of bacterial growth incubated for 48 hrs by spectrophotometer; assay type: functional
[3] = target: T1, Decaprenylphosphoryl-beta-D-ribose oxidase (Mycobacterium tuberculosis (strain ATCC 25618 / H37Rv), UniProt P9WJF1)
T1 sequence (P9WJF1 whole entry): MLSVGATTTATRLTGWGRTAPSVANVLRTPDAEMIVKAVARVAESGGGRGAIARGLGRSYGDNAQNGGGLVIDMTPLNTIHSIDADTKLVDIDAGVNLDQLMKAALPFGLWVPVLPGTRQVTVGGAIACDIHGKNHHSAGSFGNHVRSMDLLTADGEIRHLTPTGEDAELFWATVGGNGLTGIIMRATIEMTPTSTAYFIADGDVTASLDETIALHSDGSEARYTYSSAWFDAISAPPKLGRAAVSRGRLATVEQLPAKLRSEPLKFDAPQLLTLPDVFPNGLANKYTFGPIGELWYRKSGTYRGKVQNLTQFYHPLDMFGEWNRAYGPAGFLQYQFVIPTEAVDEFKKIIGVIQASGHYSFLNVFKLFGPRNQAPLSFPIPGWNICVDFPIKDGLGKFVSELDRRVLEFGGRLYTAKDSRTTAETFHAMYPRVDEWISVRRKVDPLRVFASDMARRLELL
Description: Binding affinity to Mycobacterium tuberculosis DprE1 assessed as dissociation constant by biolayer interferometry

[4] = target: T2, Decaprenylphosphoryl-beta-D-ribose oxidase (Mycobacterium tuberculosis (strain ATCC 25618 / H37Rv)) (UniProt P9WJF1); test: Binding affinity to Mycobacterium tuberculosis DprE1 upto 166.7 microM by biolayer interferometry
T2 sequence (whole entry): T1 sequence (P9WJF1 whole entry)

[5] = Antimicrobial activity against Lactobacillus reuteri assessed as inhibition of microbial growth upto 2 uM; assay type: toxicity; details: limosilactobacillus reuteri
[6] = Antimicrobial activity against Akkermansia muciniphila assessed as inhibition of microbial growth upto 2 uM; assay type: toxicity
[7] = Antimicrobial activity against Clostridium tyrobutyricum assessed as inhibition of microbial growth upto 2 uM; assay type: toxicity
[8] = Antimicrobial activity against Bifidobacterium pseudocatenulatum assessed as inhibition of microbial growth upto 2 uM; assay type: toxicity
[9] = system: Mycobacterium tuberculosis; test: Antimycobacterial activity against Mycobacterium tuberculosis assessed as inhibition of bacterial growth incubated for 24 hrs by alamar blue assay; assay type: functional
[10] = system: Mycolicibacterium smegmatis; test: Antimycobacterial activity against Mycobacterium smegmatis […] assessed as inhibition of bacterial growth at 10 uM incubated for 48 hrs by spectrophotometer relative to control; assay type: functional
[11] = system: Mycobacterium tuberculosis; assay type: functional; details: H37Ra
[12] = system: Mycolicibacterium smegmatis; test: Synergistic antimycobacterial activity against Mycobacterium smegmatis assessed as inhibition of bacterial growth at 0.5 times MIC50 incubated for 7 days in presence of 0.5 times MIC50 of ethambutol by checkerboard assay; assay type: functional, organism-based; details: time 7.0 day
[13] = Cytotoxicity against human Chang liver cells assessed as inhibition of cell growth; assay type: toxicity, cell-based
[14] = system: Mycolicibacterium smegmatis; test: Synergistic antimycobacterial activity against Mycobacterium smegmatis assessed as inhibition of bacterial growth at 0.5 times MIC50 incubated for 7 days in presence of 0.5 times MIC50 of rifampicin by checkerboard assay; assay type: functional, organism-based; details: time 7.0 day

Row | Compound | MIC90 [1] [µM] | IC50 (in vitro) [µM] | MIC [2] [µM] | other results
1 | Cc1cccc(C(=O)Nc2cc(C)nn2-c2nc3cc(Cl)ccc3c(=O)[nH]2)c1 | 3.18 (≈ 1.25 µg/mL) |  |  | 
2 | CCc1cc(=O)[nH]c(-n2nc(C)cc2NC(=O)c2cccc([N+](=O)[O-])c2)n1 | 3.12 (≈ 1.15 µg/mL) | 55.4 | 0.86 (≈ 0.317 µg/mL) | 
3 | Cc1cccc(C(=O)Nc2cc(C)nn2-c2nc3ccc(F)cc3c(=O)[nH]2)c1 | 0.83 (≈ 0.313 µg/mL) |  |  | 
4 | CO[C@H]1/C=C/O[C@@]2(C)Oc3c(C)c(O)c4c(O)c(c(/C=N/N5CCN(C)CC5)c(O)c4c3C2=O)NC(=O)/C(C)=C\C=C\[C@H](C)[C@H](O)[C@@H](C)[C@@H](O)[C@@H](C)[C@H](OC(C)=O)[C@@H]1C [RIFAMPIN] |  |  |  | Kd [3]: 93600 µM; Activity [4]: inactive; Activity [5]: Non-Toxic; Activity [6]: Toxic; Activity [7]: Toxic
5 | CCc1cc(=O)[nH]c(-n2nc(C)cc2N)n1 | 6.25 (≈ 1.37 µg/mL) |  |  | 
6 | Cc1cccc(C(=O)Nc2cc(C)nn2-c2nc3ccc(C)cc3c(=O)[nH]2)c1 | 0.84 (≈ 0.314 µg/mL) |  |  | 
7 | CCc1c(C)nc(-n2nc(C)cc2NC(=O)COc2cccc(C)c2)[nH]c1=O | 5.98 (≈ 2.28 µg/mL) | 41.2 | 7.71 (≈ 2.94 µg/mL) | 
8 | NNC(=O)c1ccncc1 [ISONIAZID] | 0.78 (≈ 0.107 µg/mL) | > 100 |  | Activity [5]: Non-Toxic; Activity [7]: Toxic; Activity [8]: Toxic
9 | COc1ncnc(Cn2cc(C(=O)NCCO)c3ncc(C)cc32)c1C [TBA-7371] | 12.5 (≈ 4.44 µg/mL) | 165 | 2.54 (≈ 0.903 µg/mL) | 
10 | Cc1cc(NC(=O)c2cccc(C(F)(F)F)c2)n(-c2nc3ccccc3c(=O)[nH]2)n1 | 1.51 (≈ 0.624 µg/mL) |  |  | 
11 | Cc1cccc(C(=O)Nc2cc(C)nn2-c2nc3cc(F)ccc3c(=O)[nH]2)c1 | 1.66 (≈ 0.626 µg/mL) |  |  | 
12 | C=CCN1C(=O)NC(=O)/C(=C\NNC(=O)c2ccncc2)C1=O |  |  |  | MIC [9]: 9.75 µM (≈ 3.07 µg/mL)
13 | CCc1cc(=O)[nH]c(-n2nc(C)cc2NC(=O)C2CCCC2)n1 | 6.25 (≈ 1.97 µg/mL) |  |  | 
14 | COc1ccc2c(=O)[nH]c(-n3nc(C)cc3NC(=O)c3cccc(C)c3)nc2c1 | 6.43 (≈ 2.5 µg/mL) |  |  | 
15 | CCc1cc(=O)[nH]c(-n2nc(C)cc2Nc2cccc(C)c2)n1 | 0.78 (≈ 0.241 µg/mL) |  |  | 
16 | Cc1cc(NC(=O)Cc2ccccc2)n(-c2nc3ccccc3c(=O)[nH]2)n1 | 7.22 (≈ 2.59 µg/mL) |  |  | 
17 | CCOC(=O)C(=O)Nc1cc(C)nn1-c1nc(C)c(CC)c(=O)[nH]1 | 30.6 (≈ 10.2 µg/mL) | 83.8 | 30.6 (≈ 10.2 µg/mL) | 
18 | Cc1cccc(C(=O)Nc2cc(C)nn2-c2nc(C3CC3)cc(=O)[nH]2)c1 | 3.12 (≈ 1.09 µg/mL) |  |  | 
19 | CCc1c(C)nc(-n2nc(C)cc2NC(=O)C2CC(=O)N(c3ccc(C)cc3)C2)[nH]c1=O (centres undefined) |  | > 100 | 29.8 (≈ 12.9 µg/mL) | inhibition at 10 µM [10]: 38%

Row | Compound | MIC90 [1] [µM] | IC50 (in vitro) [µM] | MIC [2] [µM] | other results
20 | CCc1c(C)nc(-n2nc(C)cc2NC(=O)CCc2ccc(OC)cc2)[nH]c1=O | 6.32 (≈ 2.5 µg/mL) | 129 | 18 (≈ 7.11 µg/mL) | 
21 | Cc1cc(NC(=O)c2cccnc2)n(-c2nc3ccccc3c(=O)[nH]2)n1 | 1.81 (≈ 0.627 µg/mL) |  |  | 
22 | Cc1cc(NC(=O)c2ccc(C)c(C)c2)n(-c2nc(C)c(C)c(=O)[nH]2)n1 | 3.56 (≈ 1.25 µg/mL) | 38.7 | 1.06 (≈ 0.372 µg/mL) | 
23 | CCc1cc(=O)[nH]c(-n2nc(C)cc2NC(C)=O)n1 | 50 (≈ 13.1 µg/mL) |  |  | 
24 | Cc1cc(NC(=O)c2ccc3ccccc3c2)n(-c2nc3c(c(=O)[nH]2)CCC3)n1 |  | 144 | > 50 | 
25 | O=C(Cc1ccccc1)NNC(=O)c1cc([N+](=O)[O-])cc([N+](=O)[O-])c1 |  |  |  | MIC [11]: 1.25 µM (≈ 0.43 µg/mL)
26 | COc1ccc2nc(-n3nc(C)cc3NC(=O)c3cccc(C)c3)[nH]c(=O)c2c1 | 0.8 (≈ 0.312 µg/mL) |  |  | 
27 | CCc1cc(=O)[nH]c(-n2nc(C)cc2Nc2cccc([N+](=O)[O-])c2)n1 | 1.56 (≈ 0.531 µg/mL) |  |  | 
28 | CC(=O)N1N=C(c2c(O)n(-c3ccccc3C)c(=O)[nH]c2=O)CC1c1ccccc1 (centres undefined) |  | 21 | > 50 | 
29 | Cc1cccc(C(=O)Nc2cc(C)nn2-c2nc3ccc(Cl)cc3c(=O)[nH]2)c1 | 1.59 (≈ 0.626 µg/mL) |  |  | 
30 | CCC(CC)C(=O)Nc1nnc(C2CC(=O)N(c3ccc(C)c(Cl)c3)C2)s1 (centres undefined) |  | 43 | > 50 | 
31 | Cc1cccc(Nc2cc(C)nn2-c2nc3ccccc3c(=O)[nH]2)c1 | 0.94 (≈ 0.311 µg/mL) |  |  | 
32 | Cc1cccc(C(=O)Nc2cc(C)nn2-c2nc3ccccc3c(=O)[nH]2)c1 | 1.56 (≈ 0.561 µg/mL) | > 100 |  | Activity [12]: Active; Activity [5]: Non-Toxic; Activity [6]: Non-Toxic; Activity [13]: Non-Toxic; Activity [14]: Active; Activity [7]: Non-Toxic; Activity [8]: Non-Toxic
33 | CCc1ccc(N2CC(C(=O)Nc3ccccc3C(=O)Nc3nnc(CC)s3)CC2=O)cc1 (centres undefined) |  | 165 | > 50 | 
34 | CCc1cc(=O)[nH]c(-n2nc(C)cc2NC(=O)c2cccc(C)c2)n1 | 1.56 (≈ 0.526 µg/mL) |  |  | 
35 | CCc1cc(=O)[nH]c(-n2nc(C)cc2NC(=O)c2cccc(F)c2)n1 | 6.25 (≈ 2.13 µg/mL) |  |  | 
36 | Cc1nc2ccc(NC(=O)c3cc([N+](=O)[O-])cc([N+](=O)[O-])c3Cl)cc2s1 |  | 86.1 | > 50 | 
37 | CCc1cc(=O)[nH]c(-n2nc(C)cc2Nc2cccc(C(F)(F)F)c2)n1 | 0.78 (≈ 0.283 µg/mL) | > 100 |  | Kd [3]: 25 µM; Activity [12]: Active; Activity [5]: Non-Toxic; Activity [6]: Non-Toxic; Activity [13]: Non-Toxic; Activity [14]: Active; Activity [7]: Non-Toxic; Activity [8]: Non-Toxic
38 | CCOc1ccc(CC(=O)Nc2cc(C)nn2-c2nc3c(c(=O)[nH]2)CCC3)cc1 | 18.5 (≈ 7.26 µg/mL) | 116 | 18.5 (≈ 7.26 µg/mL) | 
